Holding throughout (assay type): cell-based
For one assay, the system named is BMP4. Briefly: BMP4 expression after 5-azadC treatment. The method, then:
(§1) Gastric cancer cell lines were treated with 5-aza-2′-deoxycytidine (5-azadC), a chemical inhibitor of DNA methyltransferases to investigate if BMP4 gene expression is regulated by BMP4 promoter methylation.

The next assay relates to SMAD1/5/8. Put plainly: phosphorylation of BMP-downstream targets after 5-azadC treatment. The protocol:
as §1

For a further assay, the system named is AGS cells. Briefly: cisplatin growth inhibition (GI50) in GC cell lines. To be noted: 48 hrs. The method, then: (§2) 20 GC cell lines were treated with increasing concentrations of cisplatin, from 0.1 μM to 1 mM. For each line, the cisplatin GI50, referring to the concentration of cisplatin required to cause 50% growth inhibition at 48 hrs.
Assay [1] relates to YCC11 cells. The assay is described as above. To be noted: 48 hrs. The method, then: as §2
The next assay has as its system GC cells. Put plainly: high-content screening of morpho-cellular parameters after cisplatin treatment. The protocol: The reason for cell growth inhibition caused by cisplatin was determined using high-content screening (HCS), a cell-based technology allowing biological responses to be measured at the single-cell level, to quantify levels of caspase-3 activation in GC cells after cisplatin treatment. Five distinct morpho-cellular parameters were quantified for alterations induced by cisplatin—caspase3 activation, nuclear size, nuclear condensation, nuclear morphology and nuclear ellipticity.

The subject of another assay is AZ521 cells. Briefly: cisplatin growth inhibition and caspase-3 activation in BMP4-manipulated cells. To be noted: for GI50: read-out: absolute GI50.
Assay [2] concerns YCC11 cells. The description is as above. To be noted: for IC50: read-out: absolute 0150.

Where two headings read alike, the source gives them in different places.

As to `Nc1ncn([C@H]2C[C@H](O)[C@@H](CO)O2)c(=O)n1` [5-azadC, 5-aza-2′-deoxycytidine], the BMP4 transcripts entry in the assay on BMP4 (cisplatin sensitive lines YCC10 and YCC11 (BMP4 promoter methylated)) is “up-regulated”. The BMP4 expression entry with BMP4 (resistant cell lines MKN45 and AZ521 (BMP4 promoter unmethylated)) was “did not alter”. Moreover, the “phosphorylated SMAD1/5/8” value with SMAD1/5/8 (cisplatin resistant lines MKN45 and AZ521) was “not affected”. In the assay with SMAD1/5/8 (cisplatin sensitive lines YCC10 and YCC11), the “phosphorylation of SMAD1/5/8” value is listed as “increased”.
On to `N.N.[Cl][Pt][Cl]` [cisplatin, cis-diamminedichloroplatinum (II)], for which the GI50 in the assay with AGS cells was 126000 nM; in the assay with YCC11 cells [1], 1500 nM; in the assay on AZ521 cells (BMP4-silenced AZ521 cells (individual clones 1 and 2)), 1100 to 3240 nM; with AZ521 cells (parental AZ521 cells), 15000 nM. Besides, the caspase-3 activation levels entry in the assay with GC cells (cisplatin-sensitive lines compared to cisplatin-resistant lines) is recorded as “Significantly higher”; in the assay with AZ521 cells (BMP4-silenced AZ521 cells compared to control cells, after cisplatin treatment), “significantly higher”. In addition, in the assay with GC cells (top four sensitive lines compared to resistant lines), the nuclear ellipticity entry was “Significant changes”. Further, the IC50 in the assay on YCC11 cells [2] (BMP4-overexpressing YCC11 cells (individual clones 1 and 2)) is 200 to 500 nM; in the assay on YCC11 cells [2] (parental YCC11 cells), 45 nM. Also, in the assay with YCC11 cells [2] (BMP4-overexpressing YCC11 cells, after cisplatin), the “active Caspase-3 levels” value is “reduction”.

What is called GI50 is the concentration giving 50% growth inhibition.

Source of the values: patent US9458460B2, “Pharmaceutical compositions for treating cancer” (National University of Singapore, priority 2011, dated 2016).
